Test results: patent publication EP1007530B1, “6-O-SUBSTITUTED ERYTHROMYCIN COMPOUNDS AND METHOD FOR MAKING SAME” (ABBOTT LABORATORIES, priority 1996, dated 1997)

What was measured:
Assay in all cases: In vitro assay of antibacterial activity (agar dilution MIC)
Assay type in all cases: cell-based
[1] = test system: Streptococcus pyogenes 930; conditions: BHI agar, 35-37 °C, 20 to 24 hours, unit assumed
Method: (§1) Representative compounds of the present invention were assayed in vitro for antibacterial activity as follows: Twelve petri dishes containing successive aqueous dilutions of the test compound mixed with 10 mL of sterilized Brain Heart Infusion (BHI) agar (Difco 0418-01-5) were prepared. Each plate was inoculated with 1:100 (or 1:10 for slow-growing strains, such as Micrococcus and Streptococcus) dilutions of up to 32 different microorganisms, using a Steers replicator block. The inoculated plates were incubated at 35-37 °C for 20 to 24 hours, In addition, a control plate, using BHI agar containing no test compound, was prepared and incubated at the beginning and end of each test.
(§2) An additional plate containing a compound having known susceptibility patterns for the organisms being tested and belonging to the same antibiotic class as the test compound was also prepared and incubated as a further control, as well as to provide test-to-test comparability. Erythromycin A was used for this purpose.
(§3) After incubation, each plate was visually inspected. The minimum inhibitory concentration (MIC) was defined as the lowest concentration of drug yielding no growth, a slight haze, or sparsely isolated colonies on the inoculum spot as compared to the growth control. […]

[2] = test system: Micrococcus luteus ATCC 9341; conditions: BHI agar, 35-37 °C, 20 to 24 hours, unit assumed
Method: as §1, §2, §3

Escherichia coli H560 = conditions: BHI agar, 35-37 °C, 20 to 24 hours, unit assumed
Method: as §1, §2, §3

Escherichia coli JUHL = conditions: BHI agar, 35-37 °C, 20 to 24 hours, in µg/mL (unit assumed)
Method: as §1, §2, §3

[3] = test system: Streptococcus bovis A-5169; conditions: BHI agar, 35-37 °C, 20 to 24 hours, unit assumed
Method: as §1, §2, §3

Pseudomonas capacia 2961 = conditions: BHI agar, 35-37 °C, 20 to 24 hours, in µg/mL (unit assumed)
Method: as §1, §2, §3

[4] = test system: Staphylococcus aureus CMX 642A; conditions: BHI agar, 35-37 °C, 20 to 24 hours, unit assumed
Method: as §1, §2, §3

[5] = test system: Streptococcus pyogenes PIU 2548; conditions: BHI agar, 35-37 °C, 20 to 24 hours, unit assumed
Method: as §1, §2, §3

[6] = test system: Streptococcus pyogenes EES61; conditions: BHI agar, 35-37 °C, 20 to 24 hours, unit assumed
Method: as §1, §2, §3

[7] = test system: Staphylococcus aureus 1775; conditions: BHI agar, 35-37 °C, 20 to 24 hours, unit assumed
Method: as §1, §2, §3

[8] = test system: Klebsiella pneumoniae ATCC 8045; conditions: BHI agar, 35-37 °C, 20 to 24 hours, unit assumed
Method: as §1, §2, §3

Escherichia coli KNK 437 = conditions: BHI agar, 35-37 °C, 20 to 24 hours, unit assumed
Method: as §1, §2, §3

[9] = test system: Mycobacterium smegmatis ATCC 114; conditions: BHI agar, 35-37 °C, 20 to 24 hours, unit assumed
Method: as §1, §2, §3

[10] = test system: Providencia struartii CMX 640; conditions: BHI agar, 35-37 °C, 20 to 24 hours, unit assumed
Method: as §1, §2, §3

[11] = test system: Staphylococcus epidermidis 3519; conditions: BHI agar, 35-37 °C, 20 to 24 hours, unit assumed
Method: as §1, §2, §3

[12] = test system: Staphylococcus aureus ATCC 6538P; conditions: BHI agar, 35-37 °C, 20 to 24 hours, unit assumed
Method: as §1, §2, §3

[13] = test system: Enterobacter aerogenes ATCC 13048; conditions: BHI agar, 35-37 °C, 20 to 24 hours, unit assumed
Method: as §1, §2, §3

[14] = test system: Pseudomonas aeruginosa K799/WT; conditions: BHI agar, 35-37 °C, 20 to 24 hours, unit assumed
Method: as §1, §2, §3

[15] = test system: Pseudomonas aeruginosa DPHD-2862; conditions: BHI agar, 35-37 °C, 20 to 24 hours, unit assumed
Method: as §1, §2, §3

[16] = test system: Enterococcus faecium ATCC 8043; conditions: BHI agar, 35-37 °C, 20 to 24 hours, unit assumed
Method: as §1, §2, §3

[17] = test system: Streptococcus agalactiae CMX 508; conditions: BHI agar, 35-37 °C, 20 to 24 hours, unit assumed
Method: as §1, §2, §3

[18] = test system: Pseudomonas aeruginosa K799/61; conditions: BHI agar, 35-37 °C, 20 to 24 hours, unit assumed
Method: as §1, §2, §3

[19] = test system: Pseudomonas aeruginosa BMH10; conditions: BHI agar, 35-37 °C, 20 to 24 hours, in µg/mL (unit assumed)
Method: as §1, §2, §3

Candida albicans CCH 442 = conditions: BHI agar, 35-37 °C, 20 to 24 hours, unit assumed
Method: as §1, §2, §3

[20] = test system: Pseudomonas aeruginosa DPHD-5263; conditions: BHI agar, 35-37 °C, 20 to 24 hours, in µg/mL (unit assumed)
Method: as §1, §2, §3

[21] = test system: Micrococcus luteus ATCC 4698; conditions: BHI agar, 35-37 °C, 20 to 24 hours, unit assumed
Method: as §1, §2, §3

[22] = test system: Pseudomonas aeruginosa 5007; conditions: BHI agar, 35-37 °C, 20 to 24 hours, unit assumed
Method: as §1, §2, §3

[23] = test system: Staphylococcus aureus A-5278; conditions: BHI agar, 35-37 °C, 20 to 24 hours, unit assumed
Method: as §1, §2, §3

Escherichia coli DC-2 = conditions: BHI agar, 35-37 °C, 20 to 24 hours, unit assumed
Method: as §1, §2, §3

[24] = test system: Staphylococcus aureus NCTC10649M; conditions: BHI agar, 35-37 °C, 20 to 24 hours, unit assumed
Method: as §1, §2, §3

Escherichia coli SS = conditions: BHI agar, 35-37 °C, 20 to 24 hours, unit assumed
Method: as §1, §2, §3

[25] = test system: Staphylococcus aureus CMX 553; conditions: BHI agar, 35-37 °C, 20 to 24 hours, unit assumed
Method: as §1, §2, §3

[26] = test system: Actinetobacter calcoaceticus CMX 669; conditions: BHI agar, 35-37 °C, 20 to 24 hours, unit assumed
Method: as §1
(§4) An additional plate containing a compound having known susceptibility patterns for the organisms being tested and belonging to the same antibiotic class as the test compound was also prepared and incubated as a further control, as well as to provide test-to-test comparability.
as §3

[27] = test system: Staphylococcus aureus A5177; conditions: BHI agar, 35-37 °C, 20 to 24 hours, unit assumed
Method: as §1, §4, §3

SMILES	MIC [1] [µg/mL]	MIC [2] [µg/mL]	MIC (Escherichia coli H560) [µg/mL]	MIC (Escherichia coli JUHL)	MIC [3] [µg/mL]	MIC (Pseudomonas capacia 2961)	MIC [4] [µg/mL]	MIC [6] [µg/mL]	MIC [7] [µg/mL]	MIC [8] [µg/mL]	MIC (Escherichia coli KNK 437) [µg/mL]	MIC [9] [µg/mL]	MIC [10] [µg/mL]	MIC [11] [µg/mL]	MIC [12] [µg/mL]	MIC [13] [µg/mL]	MIC [14] [µg/mL]	MIC [15] [µg/mL]	MIC [16] [µg/mL]	MIC [17] [µg/mL]	other results
CC[C@H]1OC(=O)[C@H](C)[C@@H](O[C@H]2C[C@@](C)(OC)[C@@H](O)[C@H](C)O2)[C@H](C)[C@@H](O[C@@H]2O[C@H](C)C[C@H](N(C)C)[C@H]2O)[C@](C)(OCC(O)CO)C[C@@H](C)C(=O)[C@H](C)[C@@H](O)[C@]1(C)O (stereo partly shown) [Example 3, Compound of Formula (X): X is =O, R is 2.3-dihydroxypropyl]	> 100	0.1	25	50	0.2	>100	1.56	0.2	> 100	> 100	100	0.78	> 100	0.78	1.56	> 100	> 100	> 100	0.39	0.39	MIC [5]: 12.5 µg/mL; MIC [18]: 1.56 µg/mL; MIC [19]: >100; MIC (Candida albicans CCH 442): > 100 µg/mL; MIC [20]: > 100; MIC [21]: 1.56 µg/mL; MIC [22]: > 100 µg/mL; MIC [23]: > 100 µg/mL; MIC (Escherichia coli DC-2): 50 µg/mL; MIC [24]: 1.56 µg/mL; MIC (Escherichia coli SS): 1.56 µg/mL; MIC [25]: 3.1 µg/mL; MIC [26]: 12.5 µg/mL; MIC [27]: 50 µg/mL
CC[C@H]1OC(=O)[C@H](C)[C@@H](O[C@H]2C[C@@](C)(OC)[C@@H](O)[C@H](C)O2)[C@H](C)[C@@H](O[C@@H]2O[C@H](C)C[C@H](N(C)C)[C@H]2O)[C@](C)(OCC(O)CNCc2ccccc2)C[C@@H](C)C(=O)[C@H](C)[C@@H](O)[C@]1(C)O (stereo partly shown) [Example 7, Compound of Formula (X): X is =O, R is 2-hydroxy-3-(benzylamino)propyl]	> 100	0.02	1.56	12.5	0.01	> 100	0.39	0.01	> 100	25	12.5	0.2	> 100	0.39	0.39	50	100	> 100	0.39	0.01	MIC [18]: 0.39 µg/mL; MIC [19]: 25; MIC (Candida albicans CCH 442): > 100 µg/mL; MIC [20]: > 100; MIC [21]: 0.78 µg/mL; MIC [22]: > 100 µg/mL; MIC [23]: > 100 µg/mL; MIC (Escherichia coli DC-2): 6.2 µg/mL; MIC [24]: 0.39 µg/mL; MIC (Escherichia coli SS): 0.2 µg/mL; MIC [25]: 0.39 µg/mL; MIC [26]: 12.5 µg/mL; MIC [27]: 3.1 µg/mL
